The test system of series [1] is HBV AD38 viral particles in HepG2 cell line overexpressing NTCP. As to the kind of experiment: HBV DNA Quantification Assay. It counts as cell-based. As to conditions: Hepatitis B virus, HepG2, 120 h, HBV-infected HepG2-NTCP cells, 5 days incubation, HBV DNA in culture supernatant (QuantiGene 2.0); geometric mean of a minimum of four determinations. The procedure:
HBV DNA Quantification Assay
A HepG2 cell line overexpressing the HBV virus attachment receptor sodium-taurocholate cotransporting polypeptide (NTCP) was grown to confluency in DMEM growth medium, Dulbecco's Modified Eagle Medium without sodium pyruvate (Life Technologies, Rockville, Md.) supplemented with 10% FBS (Thermo Scientific, Waltham, Md.), 1% penicillin/streptomycin (Life Technologies, Rockville, Md.) and 2 mM L-glutamine (Life Technologies, Rockville, Md.) in T175 flasks. Cells were infected with HBV AD38 viral particles (Texcell, Frederick, USA) at 4000 genome equivalents per cell. After allowing viral infection to take place for 4 days, the infected cells were harvested from the flasks by trypsinization, washed twice with OptiMEM (Life Technologies, Rockville, Md.) and re-suspended in DMEM containing 2% FBS and 1% DMSO at a density of 0.25E6 cells/ml. Infected cells were seeded on 384 well collagen coated plates (Greiner, Austria) at a density of 20,000 cells/well containing serially diluted compounds of the present disclosure or DMSO (0.5%) in a final volume of 80 μl. The assay plates were incubated for a period of 5 days and the antiviral activity of the test compounds were assayed by detecting the presence of HBV DNA in the culture supernatant using the QuantiGene™ 2.0 nucleic acid quantification kit (Affymetrix, Santa Clara, Calif.).
The culture supernatant was harvested and treated with lysis buffer containing Proteinase K (Affymetrix, Santa Clara, Calif.). The supernatant was incubated with HBV viral DNA specific probes (Affymetrix, Santa Clara, Calif.) for 30 minutes at 55° C. This was followed by addition of 0.2M NaOH for 30 minutes at room temperature to denature the DNA, followed by addition of Neutralization buffer (Affymetrix, Santa Clara, Calif.). The resulting lysed and neutralized supernatant was then added to QuantiGene™ 2.0 384 well plates coated with capture oligonucleotides and incubated overnight at 55° C. The HBV specific probe set consists of Capture Extender oligonucleotides (CE's) and blocking probes. Following the overnight incubation, the wells were incubated for one hour sequentially with a Pre-Amplifier, Amplifier and Labeled probes conjugated to alkaline phosphatase with a wash step between incubations. After the final wash step, the alkaline phosphatase substrate (Luminol APS5) was added and the resulting luminescence signal was read in an EnVision Multilabel Plate Reader (PerkinElmer, Santa Clara, Calif.). The EC50 values were calculated from the fit of the dose—response curves to a four-parameter equation. All EC50 values represent geometric mean values of a minimum of four determinations.

Series [2] can be described thus: Hepatic Stability Assay (in vitro half-life method). In kind it is in vitro ADME. Set-up: dose or concentration left out as unconfirmed. The following applies: pooled cryopreserved hepatocytes, 37° C., 1×10^6 cells/mL, 0-6 hours, LC-MS/MS, 39.5 hours is the maximum detectable half life, read-out: t½ (converted). The gist of the method:
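Pooled cryopreserved hepatocytes (1×10^6 cells/mL) incubated with compound at […] test concentration, 37° C.; samples at 0, 1, 3 and 6 h quantified by LC-MS/MS. Half-life from rate of compound disappearance, scaled to predicted hepatic clearance via well-stirred model.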

The structures appear in SMILES notation.

As for `Cc1c(C(=O)C(=O)NC2(c3c[nH]nn3)CC(F)(F)C2)c2n(c1C(=O)Nc1ccnc(C(F)F)c1F)[C@@H]1C[C@@H]1C2` [Example 80, (1aR,6aR)-5-(2-((3,3-difluoro-1-(1H-1,2,3-triazol-4-yl)cyclobutyl)amino)-2-oxoacetyl)-N-(2-(difluoromethyl)-3-fluoropyridin-4-yl)-4-methyl-1,1a,6,6a-tetrahydrocyclopropa[b]pyrrolizine-3-carboxamide], it took 8.7 nM to reach a half-maximal effect in series [1] (EC50). Besides, in series [2], the half-life is 6.3 h.

In the case of `CNC(=O)C(C)(C)NC(=O)C(=O)c1c(C)c(C(=O)Nc2ccc(F)c(C(F)F)c2)n2c1CCC2` [Example 114, N-(3-(difluoromethyl)-4-fluorophenyl)-6-methyl-7-(2-((2-methyl-1-(methylamino)-1-oxopropan-2-yl)amino)-2-oxoacetyl)-2,3-dihydro-1H-pyrrolizine-5-carboxamide], in series [1], the concentration giving a half-maximal response (EC50) (in general, the concentration that produces a half-maximal response) was found to be 156 nM.

In the case of `Cc1c(C(=O)C(=O)NC2(c3c[nH]nn3)CC2)c2n(c1C(=O)Nc1ccc(F)c(Cl)c1)C[C@@H](F)C2` [Example 46, (S)-7-(2-((1-(1H-1,2,3-triazol-4-yl)cyclopropyl)amino)-2-oxoacetyl)-N-(3-chloro-4-fluorophenyl)-2-fluoro-6-methyl-2,3-dihydro-1H-pyrrolizine-5-carboxamide], in series [1], the 50% effective concentration (EC50) was found to be 264 nM. In series [2], the half-life was 16 h.

Compound `C#CC1(NC(=O)C(=O)c2c(C)c(C(=O)Nc3ccc(F)c(Cl)c3)n3c2CCC3)CC(F)(F)C1` [Example 60, N-(3-chloro-4-fluorophenyl)-7-(2-((1-ethynyl-3,3-difluorocyclobutyl)amino)-2-oxoacetyl)-6-methyl-2,3-dihydro-1H-pyrrolizine-5-carboxamide] returned a concentration for a half-maximal effect (EC50) in series [1] of 1.8 nM. The half-life in series [2] is 3.9 h.

Compound `CNC(=O)C1(NC(=O)C(=O)c2c(C)c(C(=O)Nc3ccc(F)c(Cl)c3)n3c2CCC3)CC1` [Example 105, N-(3-chloro-4-fluorophenyl)-6-methyl-7-(2-((1-(methylcarbamoyl)cyclopropyl)amino)-2-oxoacetyl)-2,3-dihydro-1H-pyrrolizine-5-carboxamide] yielded a 50% effective concentration (EC50) in series [1] of 170 nM. Further, in series [2], the half-life is 24.3 h.

In series [1], `Cc1c(C(=O)C(=O)NC2(C(=O)N3CC4(C3)CS(=O)(=O)C4)CC(F)(F)C2)c2n(c1C(=O)Nc1ccc(F)c(Cl)c1)CCC2` [Example 13, N-(3-chloro-4-fluorophenyl)-7-(2-((1-(2,2-dioxido-2-thia-6-azaspiro[3.3]heptane-6-carbonyl)-3,3-difluorocyclobutyl)amino)-2-oxoacetyl)-6-methyl-2,3-dihydro-1H-pyrrolizine-5-carboxamide] showed an EC50 of 252 nM. Further, in series [2], the half-life was 16.4 h.

`Cc1c(C(=O)C(=O)NC2(c3c[nH]nn3)CC2)c2n(c1C(=O)Nc1cc(Cl)cc(Cl)c1)CCC2` [Example 102, 7-(2-((1-(1H-1,2,3-triazol-4-yl)cyclopropyl)amino)-2-oxoacetyl)-N-(3,5-dichlorophenyl)-6-methyl-2,3-dihydro-1H-pyrrolizine-5-carboxamide] gave an EC50 in series [1] of 112 nM. In addition, the half-life in series [2] was 4.8 h.

`Cc1c(C(=O)C(=O)NC2(c3c[nH]nn3)CC2)c2n(c1C(=O)Nc1ccc(F)c(C(F)F)c1)CCC2` [Example 77, 7-(2-((1-(1H-1,2,3-triazol-4-yl)cyclopropyl)amino)-2-oxoacetyl)-N-(3-(difluoromethyl)-4-fluorophenyl)-6-methyl-2,3-dihydro-1H-pyrrolizine-5-carboxamide] showed an EC50 in series [1] of 19 nM. The half-life in series [2] was 22.1 h.

Consider `CNC(=O)C1(NC(=O)C(=O)c2c(C)c(C(=O)Nc3ccnc(C(F)F)c3F)n3c2CCC3)CC(F)(F)C1` [Example 147, 7-(2-((3,3-difluoro-1-(methylcarbamoyl)cyclobutyl)amino)-2-oxoacetyl)-N-(2-(difluoromethyl)-3-fluoropyridin-4-yl)-6-methyl-2,3-dihydro-1H-pyrrolizine-5-carboxamide], for which it took 103 nM to reach a half-maximal effect in series [1] (EC50). Further, the half-life in series [2] is 24.8 h.

Regarding `Cc1c(C(=O)C(=O)NC2(c3ccccc3)CC2)c2n(c1C(=O)Nc1cc(F)c(F)c(F)c1)CCC2` [Example 67, 6-methyl-7-(2-oxo-2-((1-phenylcyclopropyl)amino)acetyl)-N-(3,4,5-trifluorophenyl)-2,3-dihydro-1H-pyrrolizine-5-carboxamide], it took 6.5 nM to reach a half-maximal effect in series [1] (EC50).

Consider `Cc1c(C(=O)C(=O)NC23CC(C(N)=O)(C2)C3)c2n(c1C(=O)Nc1ccc(F)c(Cl)c1)CCC2` [Example 106, 7-(2-((3-carbamoylbicyclo[1.1.1]pentan-1-yl)amino)-2-oxoacetyl)-N-(3-chloro-4-fluorophenyl)-6-methyl-2,3-dihydro-1H-pyrrolizine-5-carboxamide], for which, in series [1], the EC50 came out at 124 nM.

As for `Cc1c(C(=O)C(=O)NC2(c3cnn[nH]3)CC2)c2n(c1C(=O)Nc1cccc(OC(F)(F)F)c1)CCC2` [Example 85, 7-(2-((1-(1H-1,2,3-triazol-5-yl)cyclopropyl)amino)-2-oxoacetyl)-6-methyl-N-(3-(trifluoromethoxy)phenyl)-2,3-dihydro-1H-pyrrolizine-5-carboxamide], the EC50 in series [1] is 294 nM.

The compound `CNC(=O)[C@@H](NC(=O)C(=O)c1c(C)c(C(=O)Nc2ccc(F)c(Cl)c2)n2c1CCC2)C(C)C` [Example 128, (S)—N-(3-chloro-4-fluorophenyl)-6-methyl-7-(2-((3-methyl-1-(methylamino)-1-oxobutan-2-yl)amino)-2-oxoacetyl)-2,3-dihydro-1H-pyrrolizine-5-carboxamide] returned an EC50 in series [1] of 170 nM.

With `CNC(=O)C(C)(C)NC(=O)C(=O)c1c(C)c(C(=O)Nc2ccc(F)c(Cl)c2)n2c1CCC2` [Example 82, N-(3-chloro-4-fluorophenyl)-6-methyl-7-(2-((2-methyl-1-(methylamino)-1-oxopropan-2-yl)amino)-2-oxoacetyl)-2,3-dihydro-1H-pyrrolizine-5-carboxamide], in series [1], the EC50 is 133 nM.

In the case of `CC(C)(C)NC(=O)C(=O)c1c(Cl)c(C(=O)Nc2ccc(F)c(C#N)c2)n2c1CCC2` [Example 1, 7-(2-(tert-Butylamino)-2-oxoacetyl)-6-chloro-N-(3-cyano-4-fluorophenyl)-2,3-dihydro-1H-pyrrolizine-5-carboxamide], the EC50 in series [1] worked out at 27.1 nM.

For `Cc1c(C(=O)C(=O)NC2(C(N)=O)CC(F)(F)C2)c2n(c1C(=O)Nc1ccc(F)c(Cl)c1)CCC2` [Example 120, 7-(2-((1-carbamoyl-3,3-difluorocyclobutyl)amino)-2-oxoacetyl)-N-(3-chloro-4-fluorophenyl)-6-methyl-2,3-dihydro-1H-pyrrolizine-5-carboxamide], in series [2], the half-life was 13.5 h.

Consider `Cc1nnc(C2(NC(=O)C(=O)c3c(C)c(C(=O)Nc4ccc(F)c(Cl)c4)n4c3CCC4)CC2)[nH]1` [Example 51, N-(3-chloro-4-fluorophenyl)-6-methyl-7-(2-((1-(5-methyl-4H-1,2,4-triazol-3-yl)cyclopropyl)amino)-2-oxoacetyl)-2,3-dihydro-1H-pyrrolizine-5-carboxamide], for which the half-life in series [2] is 9.5 h.

Turning to `Cc1c(C(=O)C(=O)NC2(c3c[nH]nn3)CC(F)(F)C2)c2n(c1C(=O)Nc1ccnc(C(F)F)c1F)C[C@H](F)C2` [Example 134, (R)-7-(2-((3,3-difluoro-1-(1H-1,2,3-triazol-4-yl)cyclobutyl)amino)-2-oxoacetyl)-N-(2-(difluoromethyl)-3-fluoropyridin-4-yl)-2-fluoro-6-methyl-2,3-dihydro-1H-pyrrolizine-5-carboxamide], the half-life in series [2] was 17.9 h.

`Cc1c(C(=O)C(=O)NC2(c3c[nH]nn3)CC2)c2n(c1C(=O)Nc1cc(Cl)c(F)cc1F)CCC2` [Example 91, 7-(2-((1-(1H-1,2,3-triazol-4-yl)cyclopropyl)amino)-2-oxoacetyl)-N-(5-chloro-2,4-difluorophenyl)-6-methyl-2,3-dihydro-1H-pyrrolizine-5-carboxamide]: in series [2], the half-life is 19.6 h.

The record behind these values is patent publication US10328053B2 (Gilead Sciences, Inc., priority 2016, dated 2019).
